Experimental data from PMC3821527 (Bioorganic & medicinal chemistry letters, 2013).

Tests used:
AAC(6′)-Ib [1] = target: T1, AAC(6′)-Ib (Klebsiella pneumoniae, UniProt P19650); assay: AAC; type: biochemical; conditions: for inhibition of the acetylation of kanamycin A: 100 μM compound, 18 μM kanamycin A, 50 μM acetyl CoA, 10% DMSO
AAC(6′)-Ib [2] = target: T1, AAC(6′)-Ib; assay: AAC; type: biochemical; conditions: Lineweaver-Burk plots; for mode of inhibition with respect to acetyl CoA: variable acetyl CoA; for mode of inhibition with respect to kanamycin A: variable kanamycin A

T1 sequence (P19650 whole entry): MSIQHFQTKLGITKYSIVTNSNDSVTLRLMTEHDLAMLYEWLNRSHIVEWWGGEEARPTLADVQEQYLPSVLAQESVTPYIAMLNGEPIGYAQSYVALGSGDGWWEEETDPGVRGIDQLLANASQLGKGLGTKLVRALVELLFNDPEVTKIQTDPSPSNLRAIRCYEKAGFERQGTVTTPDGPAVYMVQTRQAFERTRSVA

## O=C(O)c1ccccc1-c1ccc(C=C2C(=O)N(c3ccccc3)C(=S)N(c3ccccc3)C2=O)o1 [Compound 2, 2-{5-[(4,6-dioxo-1,3-diphenyl-2-thioxotetrahydro-5(2H)-pyrimidinylidene)methyl]-2-furyl}benzoic acid]
AAC(6′)-Ib [1]
  inhibition of the acetylation of kanamycin A: significant inhibition
AAC(6′)-Ib [2]
  mode of inhibition with respect to acetyl CoA: noncompetitive
  mode of inhibition with respect to kanamycin A: competitive

## O=C1C(=Cc2ccco2)C(=O)N(c2ccccc2)C(=S)N1c1ccccc1 [Compound 2c]
AAC(6′)-Ib [1]
  inhibition of the acetylation of kanamycin A: lack of activity

## O=C1/C(=C/c2ccco2)C(=O)N(c2ccc(Br)cc2)C(=S)N1c1ccccc1 [Compound 5309471]
AAC(6′)-Ib [1]; 0.01% Triton X-100, to rule out non-specific protein aggregation
  inhibitory activity in the presence of 0.01% Triton X-100: did not show the same level of inhibitory activity

## O=C1C(=Cc2ccco2)C(=O)N(c2ccccc2)C(=O)N1c1ccccc1 [Compound 2d]
AAC(6′)-Ib [1]
  inhibition of the acetylation of kanamycin A: lack of activity

## Cc1cccc(N2C(=O)/C(=C/c3ccccc3OCc3ccc(C(=O)O)cc3)C(=O)NC2=S)c1 [Compound 1, 4-[(2-{[1-(3-methylphenyl)-4,6-dioxo-2-thioxotetrahydro-5(2H)-pyrimidinylidene]methyl}phenoxy)methyl]benzoic acid]
AAC(6′)-Ib [1]
  inhibition of the acetylation of kanamycin A: modest inhibition
AAC(6′)-Ib [2]
  mode of inhibition with respect to acetyl CoA: noncompetitive
  mode of inhibition with respect to kanamycin A: competitive

## O=C1NC(=O)N(c2ccc(Cl)cc2)C(=O)/C1=C\c1ccco1 [Compound 2b, 1-(4-chlorophenyl)-5-(2-furylmethylene)-2,4,6(1H,3H,5H)-pyrimidinetrione]
AAC(6′)-Ib [1]
  inhibition of the acetylation of kanamycin A: weaker inhibition
